According to patent US11109593B2, “Isoxazolin-5-one derivative and herbicide containing same as active ingredient” (HOKKO CHEMICAL INDUSTRY CO., LTD., priority 2017, dated 2021):

Legend:
Assay type in all cases: in vivo
Amaranthus viridis [1] = test: Test Example 3: herbicidal effect test by treatment of dry field farming soil (one day after seeding); details: 120 g/10a active ingredient, evaluated 14 days after treatment
Method in brief: (§1)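 Alluvial dry-field soil in pots, top 1 cm mixed with 20 seeds per weed species. One day after seeding, the water-diluted emulsion was sprayed onto the soil surface at 100 L per 10 ares (120 g active ingredient per 10 ares). Duplicate pots; herbicidal rate (%) from plant dry weight versus untreated, 14 days after treatment.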

Echinochloa crus-galli [2] = test: as above; details: 120 g/10a active ingredient, evaluated 14 days after treatment
Method in brief: as §1

southern crabgrass [3] = test: as above; details: 120 g/10a active ingredient, evaluated 14 days after treatment
Method in brief: as §1

Chenopodium album [4] = test: as above; details: 120 g/10a active ingredient, evaluated 14 days after treatment
Method in brief: as §1

[5] = system: broad leaf weeds (Lindernia pyxidaria and Monochoria vaginalis); test: Test Example 1: herbicidal effect test by treatment of rice paddy soil (immediately after seeding); details: 120 g/10a active ingredient, dry weight vs untreated area, 14 days after treatment; for pest or weed control at 1200 g/ha: 336 h
Method in brief: (§2)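 Puddled, fertilized (N:P:K=17:17:17) paddy soil in Wagner pots; seeds sown 0–1 cm deep, flooded to about 3 cm. Emulsifiable formulations diluted in water and dropped into the water immediately after seeding at 120 g active ingredient per 10 ares; greenhouse. Herbicidal rate from dry weight vs untreated at 14 days.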

Scirpus juncoides [6] = test: as above; details: 120 g/10a active ingredient, dry weight vs untreated area, 14 days after treatment
Method in brief: as §2

Echinochloa crus-galli [7] = test: as above; details: 120 g/10a active ingredient, dry weight vs untreated area, 14 days after treatment
Method in brief: as §2

[8] = system: broad leaf weeds (Lindernia pyxidaria and Monochoria vaginalis); test: Test Example 2: herbicidal effect test by treatment during growing period in paddy rice cultivation (seven days after seeding); details: 120 g/10a active ingredient, assessed 14 days after treatment, dry weight vs untreated area; for pest or weed control at 1200 g/ha: 336 h
Method in brief: (§3)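 Seeds sown 0–1 cm deep in puddled, fertilised paddy soil with about 3 cm standing water in a glass greenhouse. Diluted emulsion dropped into the water seven days after seeding at 120 g active ingredient per 10 ares. Herbicidal rate (%) from mean dry weight vs untreated, duplicate, 14 days after treatment.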

Scirpus juncoides [9] = test: as above; details: 120 g/10a active ingredient, assessed 14 days after treatment, dry weight vs untreated area
Method in brief: as §3

Echinochloa crus-galli [10] = test: as above; details: 120 g/10a active ingredient, assessed 14 days after treatment, dry weight vs untreated area
Method in brief: as §3

Amaranthus viridis [11] = test: Test Example 4: herbicidal effect test by treatment of leave and stem in dry field farming (seven days after seeding); details: 120 g/10a active ingredient, emulsion sprayed seven days after seeding, evaluated 14 days after treatment
Method in brief: (§4)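 Duplicate pots were scored 14 days post-spray by dry weight, herbicidal rate = {1 − treated/untreated average dry weight} × 100. The water-diluted emulsion, equivalent to 120 g active ingredient per 10 ares in 100 L, was applied seven days after sowing 20 seeds each into the upper 1 cm of alluvial soil.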

Echinochloa crus-galli [12] = test: as above; details: 120 g/10a active ingredient, emulsion sprayed seven days after seeding, evaluated 14 days after treatment
Method in brief: as §4

southern crabgrass [13] = test: as above; details: 120 g/10a active ingredient, emulsion sprayed seven days after seeding, evaluated 14 days after treatment
Method in brief: as §4

Chenopodium album [14] = test: as above; details: 120 g/10a active ingredient, emulsion sprayed seven days after seeding, evaluated 14 days after treatment
Method in brief: as §4

Structure (SMILES)	herbicidal rate, Amaranthus viridis (Amaranthus viridis [1]) [%]	herbicidal rate, Echinochloa crus-galli (Echinochloa crus-galli [2]) [%]	herbicidal rate, southern crabgrass (southern crabgrass [3]) [%]	herbicidal rate, Chenopodium album (Chenopodium album [4]) [%]	Herbicidal rate (%) Lindernia pyxidaria ([5]; Lindernia pyxidaria) [%]	Herbicidal rate (%) Monochoria vaginalis ([5]; Monochoria vaginalis) [%]	Herbicidal rate (%) Scirpus juncoides (Scirpus juncoides [6]) [%]	Herbicidal rate (%) Echinochloa crus-galli (Echinochloa crus-galli [7]) [%]	Herbicidal rate (%) Lindernia pyxidaria ([8]; Lindernia pyxidaria) [%]	Herbicidal rate (%) Monochoria vaginalis ([8]; Monochoria vaginalis) [%]	Herbicidal rate (%) Scirpus juncoides (Scirpus juncoides [9]) [%]	Herbicidal rate (%) Echinochloa crus-galli (Echinochloa crus-galli [10]) [%]	herbicidal effect (herbicidal rate), Amaranthus viridis (Amaranthus viridis [11]) [%]	herbicidal effect (herbicidal rate), Echinochloa crus-galli (Echinochloa crus-galli [12]) [%]	herbicidal effect (herbicidal rate), southern crabgrass (southern crabgrass [13]) [%]	herbicidal effect (herbicidal rate), Chenopodium album (Chenopodium album [14]) [%]	further results
CCC(C)n1oc(=O)c(Cc2ccccc2N(S(=O)(=O)C(F)(F)F)S(=O)(=O)C(F)(F)F)c1C (centres unmarked) [Compound 1-964, 1,1,1-trifluoro-N-[2-[(3-methyl-5-oxo-2-sec-butyl-isoxazol-4-yl)methyl]phenyl]-N-(trifluoromethylsulfonyl)methanesulfonamide]																	pest or weed control at 1200 g/ha (Amaranthus viridis [1]; Amaranthus viridis, 336 h, read-out: herbicidal rate, Amaranthus viridis): 90%; pest or weed control at 1200 g/ha (Echinochloa crus-galli [2]; Echinochloa crus-galli, 336 h, read-out: herbicidal rate, Echinochloa crus-galli): 90%; pest or weed control at 1200 g/ha (southern crabgrass [3]; Digitaria ciliaris, 336 h, read-out: herbicidal rate, southern crabgrass): 90%; pest or weed control at 1200 g/ha (Chenopodium album [4]; Chenopodium album, 336 h, read-out: herbicidal rate, Chenopodium album): 90%; pest or weed control at 1200 g/ha ([5]; Monochoria vaginalis, read-out: Herbicidal rate (%) Monochoria vaginalis): 100%; pest or weed control at 1200 g/ha ([5]; in Lindernia, Lindernia pyxidaria, read-out: Herbicidal rate (%) Lindernia pyxidaria): 100%; pest or weed control at 1200 g/ha (Scirpus juncoides [6]; in Schoenoplectiella juncoides, 336 h, read-out: Herbicidal rate (%) Scirpus juncoides): 90%; pest or weed control at 1200 g/ha (Echinochloa crus-galli [7]; in Echinochloa crus-galli, 336 h, read-out: Herbicidal rate (%) Echinochloa crus-galli): 90%; pest or weed control at 1200 g/ha ([8]; Lindernia pyxidaria, read-out: herbicidal rate (%) Lindernia pyxidaria): 90%; pest or weed control at 1200 g/ha ([8]; Monochoria vaginalis, read-out: herbicidal rate (%) Monochoria vaginalis): 90%; pest or weed control at 1200 g/ha (Scirpus juncoides [9]; Schoenoplectiella juncoides, 336 h, read-out: herbicidal rate (%) Scirpus juncoides): 90%; pest or weed control at 1200 g/ha (Echinochloa crus-galli [10]; Echinochloa crus-galli, 336 h, read-out: herbicidal rate (%) Echinochloa crus-galli): 90%; pest or weed control at 1200 g/ha (Amaranthus viridis [11]; Amaranthus viridis, 336 h, read-out: herbicidal effect (herbicidal rate), Amaranthus viridis): 40%; pest or weed control at 1200 g/ha (Echinochloa crus-galli [12]; Echinochloa crus-galli, 336 h, read-out: herbicidal effect (herbicidal rate), Echinochloa crus-galli): 90%; pest or weed control at 1200 g/ha (southern crabgrass [13]; Digitaria ciliaris, 336 h, read-out: herbicidal effect (herbicidal rate), southern crabgrass): 60%; pest or weed control at 1200 g/ha (Chenopodium album [14]; Chenopodium album, 336 h, read-out: herbicidal effect (herbicidal rate), Chenopodium album): 0%
CCC(CC)Cn1oc(=O)c(Cc2ccccc2NS(=O)(=O)C(F)(F)F)c1C [Compound 1-113]	80	90	90	100	100	100	100	100	60	80	90	90	60	80	60	40	
Cc1c(Cc2ccccc2N(C(=O)OCC(C)C)S(=O)(=O)C(F)(F)F)c(=O)on1C [Compound 1-666]	0	90	100	40	80	100	90	100	90	90	90	100	40	90	70	50	
CCC(C)n1oc(=O)c(Cc2ccccc2N(C(=O)C2CC2)S(=O)(=O)C(F)(F)F)c1C (centres unmarked) [Compound 1-404]	90	90	90	90	90	90	90	90	90	90	90	90	40	90	90	40	
C=CCOC(=O)N(c1ccccc1Cc1c(C)n(C(C)c2ccccc2)oc1=O)S(=O)(=O)C(F)(F)F (centres unmarked) [Compound 1-710]	90	90	90	90	90	90	90	90	90	90	90	90	40	90	90	40	
Cc1c(Cc2ccccc2NS(=O)(=O)C(F)(F)F)c(=O)on1C(C)C1CC1 (centres unmarked) [Compound 1-144]	0	70	80	0	90	100	90	100	50	80	90	90	50	90	90	0	
Cc1c(Cc2ccccc2NS(=O)(=O)C(F)(F)F)c(=O)on1CCC(C)C [Compound 1-115]	100	90	90	100	90	90	90	100	80	80	90	90	40	60	40	40	
Cc1c(Cc2ccccc2N(S(=O)(=O)C(F)(F)F)S(=O)(=O)C(F)(F)F)c(=O)on1C(C)C [Compound 1-962]	80	90	90	70	100	100	90	100	60	80	80	90	40	90	60	50	
